Experimental findings from patent US7776566B2, “Method for producing purine nucleoside by fermentation” (priority 1997, dated 2010) are described below.

What all share (assay type): biochemical, E. coli
Experiment [1] addresses T1, PRPP synthetase (Prs) D128A (Escherichia coli, UniProt P0A717, D129A).
T1 construct: made in house; host or cells: E. coli JM109 (crude enzyme extract)
The experiment in a line: PRPP synthetase activity of crude enzyme extracts and inhibition by ADP (mutant prsDA). To be noted: mutant type. As to the method: A prs fragment was excised from the plasmid carrying the prs of about 1 kb cloned in Section 1) by SalI and SphI digestion, and inserted between the SalI and SphI sites of the multi-cloning site of a plasmid for introducing mutation, pKF19k (Takara Shuzo) to obtain the target clone (pKFprs). […] It is also described that the enzyme whose Asp (D) at position 128 is mutated to Ala (A) is partially desensitized. Therefore, the following synthetic DNA primer was prepared for gene substitution realizing mutation of Asp (D) at position 128 PRPP synthetase (Prs) to Ala (A), and pKFprs was subjected to site-directed mutagenesis according to the protocol of Site-directed Mutagenesis System Mutan-Super Express Km (Takara Shuzo) to introduce a site-directed mutation into the pKFprs. […]
Recombinant bacteria obtained by transforming E. coli JM109 cells with the above four plasmids were cultured in LB liquid medium for eight hours, and collected, and crude enzyme extracts were prepared from them. The PRPP synthetase activity of the extracts and degrees of inhibition by ADP were measured according to the method of K. F. Jensen et al. (Analytical Biochemistry, 98, 254-263 (1979)) which was partially modified. Specifically, [a-^32P]ATP was used as the substrate and [^32P]AMP produced by the reaction was measured.

The target in experiment [2] is T2, PRPP amidotransferase (PurF) K326Q (Escherichia coli, UniProt P0AG16, K327Q).
T2 construct: made in house; host or cells: E. coli JM109 (crude enzyme extract)
Description: PRPP amidotransferase activity of crude enzyme extracts and inhibition by AMP and GMP (mutant purF, pKFpurFKQ). To be noted: JM109/pKFpurFKQ crude extract, activity with None 0.34. As to the method:
(§1) A purF fragment was excised from the plasmid carrying the purF of about 1530 bp cloned into pCRTMII vector (Invitrogen) in Section 1) by digestion with PstI and HindIII, and inserted between the PstI and HindIII sites of the multi-cloning site of a plasmid for introducing mutation, pKF18 (Takara Shuzo) to obtain the target clone (pKFpurF). […] Therefore, the following synthetic DNA primers were prepared for gene substitution realizing mutations of Lys (K) at position 326 and Pro (P) at position 410 of PRPP amidotransferase (PurF) to Gln (Q) and Trp (W), respectively, and pKFpurF was subjected to site-directed mutagenesis according to the protocol of Site-directed Mutagenesis System Mutan-Super Express Km (Takara Shuzo) to introduce a site-directed mutation into the pKFpurF.
(§2) After the mutagenesis, 6 clones were randomly picked up from each of the resulting transformants, and plasmids were prepared from them. […]
(§3) Recombinant bacteria obtained by transforming E. coli JM109 cells with the above plasmids were cultured in LB liquid medium for eight hours, and collected, and crude enzyme extracts were prepared from them. The PRPP amidotransferase activity of the extracts and degrees of inhibition by AMP and GMP were measured according to the method of L. J. Messenger (J. Biol. Chem., 254, 3382 (1979)).

Experiment [3] addresses T3, PRPP amidotransferase (PurF), wild type (Escherichia coli, UniProt P0AG16).
T3 construct: made in house; host or cells: E. coli JM109 (crude enzyme extract)
The experiment in a line: PRPP amidotransferase activity of crude enzyme extracts and inhibition by AMP and GMP (wild type purF, pKFpurF). To be noted: JM109/pKFpurF crude extract, activity with None 0.68. Here is the method: as §3

Experiment [4] has as its target T4, PRPP amidotransferase (PurF) K326Q + P410W (Escherichia coli, UniProt P0AG16, K327Q/P411W).
T4 construct: made in house; host or cells: E. coli JM109 (crude enzyme extract)
Description: PRPP amidotransferase activity of crude enzyme extracts and inhibition by AMP and GMP (mutant purF, pKFpurFKQPW). To be noted: JM109/pKFpurFKQPW crude extract, activity with None 0.18. Here is the method: as §1, §2, §3

T3 sequence (P0AG16 2-505): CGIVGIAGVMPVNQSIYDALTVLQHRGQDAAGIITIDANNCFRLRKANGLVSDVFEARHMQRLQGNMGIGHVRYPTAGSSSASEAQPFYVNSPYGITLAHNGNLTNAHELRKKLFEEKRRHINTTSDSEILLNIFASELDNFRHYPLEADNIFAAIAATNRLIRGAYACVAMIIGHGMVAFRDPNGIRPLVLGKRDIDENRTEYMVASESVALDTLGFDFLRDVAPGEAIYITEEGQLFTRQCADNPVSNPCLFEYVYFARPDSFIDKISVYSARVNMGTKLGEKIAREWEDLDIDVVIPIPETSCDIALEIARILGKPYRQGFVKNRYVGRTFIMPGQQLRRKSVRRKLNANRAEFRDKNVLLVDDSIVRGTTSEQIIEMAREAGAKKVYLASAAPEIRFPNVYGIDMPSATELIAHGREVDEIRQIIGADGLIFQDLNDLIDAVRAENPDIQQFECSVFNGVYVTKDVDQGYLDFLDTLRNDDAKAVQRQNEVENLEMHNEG
T2 sequence (P0AG16 2-505 K327Q): as the sequence (P0AG16 2-505) above, with K326Q counted along it
T4 sequence (P0AG16 2-505 K327Q/P411W): as the sequence (P0AG16 2-505) above, with K326Q, P410W counted along it

Turning to `Nc1ncnc2c1ncn2[C@@H]1O[C@H](COP(=O)(O)OP(=O)(O)O)[C@@H](O)[C@H]1O` [ADP, adenosine diphosphate], the “PRPP synthetase (Prs) specific activity, 5 mM ADP” value is given as 2.7 nmole/min/mg crude enzyme extract in experiment [1] (JM109/pSTVprsDA, medium copy, activity with None 10.6) and 20.2 nmole/min/mg crude enzyme extract in experiment [1] (JM109/pUCprsDA, high copy, activity with None 80.8).

Turning to `Nc1ncnc2c1ncn2[C@@H]1O[C@H](COP(=O)(O)O)[C@@H](O)[C@H]1O` [AMP, adenosine monophosphate], the “PRPP amidotransferase activity, 10 mM AMP” value in experiment [2] (10 mM AMP) was found to be 0.32 µmol/min/mg; in experiment [3] (10 mM AMP), 0.48 µmol/min/mg; in experiment [4] (10 mM AMP), 0.16 µmol/min/mg.

As to `Nc1nc2c(ncn2[C@@H]2O[C@H](COP(=O)(O)O)[C@@H](O)[C@H]2O)c(=O)[nH]1` [GMP, guanosine monophosphate], the “PRPP amidotransferase activity, 10 mM GMP” value was determined as 0.33 µmol/min/mg in experiment [2] (10 mM GMP), 0.10 µmol/min/mg in experiment [3] (10 mM GMP) and 0.17 µmol/min/mg in experiment [4] (10 mM GMP).
